# Assay results: US11779600B2, “Methods of treating or preventing alzheimer's disease and associated conditions” (CEDARS-SINAI MEDICAL CENTER, priority 2016, dated 2023)
# How the values were obtained:
# MMP-9 = MMP-9 expression in macrophages by quantitative ICC; assay type: cell-based, mouse; details: quantitative ICC (FIG. 16F-16G)
# Method: To test amyloid-β phagocytosis by macrophage, in repeated experiments monocytes were isolated from the bone marrow of wild-type mice (n=18 mice) and differentiated into macro-phage by 7-day cultivation in complete RPMI-1640 medium (#21870; Life Technologies) with 10% serum and 20 ng/ml MCSF (#315-02; PeproTech). Bone marrow-derived macrophages (MΦBM) were generated from femurs and tibiae cultured for 6-7 days in complete RPMI 1640 medium (Life Technologies) with 10% FBS, 100 U/ml penicillin, 100 μg/ml streptomycin, 2 mM L-glutamine and 20 ng/ml MCSF (PeproTech). Primary cultures of macrophage were then plated at 1.2×10^5 cells per well (3-4 wells for each condition) in 24-well tissue-culture plates on glass cover-slips overnight. Next, macrophages were either treated with 30 μg/ml GA (Copaxone®; TEVA Neuroscience), Brefeldin A (BFA; Sigma, 1X), or 10 μM Minocycline (Sigma) for the duration of 1, 3, or 24 h, or not treated (control group). […] The fluorescent signal and its total area were determined and quantified by the conversion of individual images to greyscale and standardizing to baseline using histogram-based thresholds with NIH ImageJ software. […]
# Next, MMP-9 expression and OPN proteolytic fragments were analyzed. […]
# OPN = OPN expression in primary bone marrow-derived macrophages (qICC, ELISA); assay type: cell-based, mouse; details: for increase in OPN production/expression (qICC): without Aβ, vs untreated MΦ^BM (FIG. 14D)
# Method: For MΦ^BM cells, the cells in each well were lifted by 2 mM EDTA-PBS, collected in tubes, and centrifuged. Cell pellets were lysed and re-suspended in a cocktail of RIPA buffer supplemented with 1% protease inhibitors (Thermo Scientific), and stored at −80° C. until use.
# To test amyloid-β phagocytosis by macrophage, in repeated experiments monocytes were isolated from the bone marrow of wild-type mice (n=18 mice) and differentiated into macro-phage by 7-day cultivation in complete RPMI-1640 medium (#21870; Life Technologies) with 10% serum and 20 ng/ml MCSF (#315-02; PeproTech). Bone marrow-derived macrophages (MΦBM) were generated from femurs and tibiae cultured for 6-7 days in complete RPMI 1640 medium (Life Technologies) with 10% FBS, 100 U/ml penicillin, 100 μg/ml streptomycin, 2 mM L-glutamine and 20 ng/ml MCSF (PeproTech). Primary cultures of macrophage were then plated at 1.2×10^5 cells per well (3-4 wells for each condition) in 24-well tissue-culture plates on glass cover-slips overnight. Next, macrophages were either treated with 30 μg/ml GA (Copaxone®; TEVA Neuroscience), Brefeldin A (BFA; Sigma, 1X), or 10 μM Minocycline (Sigma) for the duration of 1, 3, or 24 h, or not treated (control group). Before addition of fibrillar amyloid-β1-42, the cells were chilled in a 4° C. ice bath for 5 min; immediately after addition of the preformed fibrillar amyloid-β1-42 (100 nM), the plates were centrifuged at 515g in 25° C. followed by incubation at 37° C. for 30 or 60 min. The cells were then rinsed with amyloid-β-free medium to remove non-incorporated amyloid-β and later washed twice with PBS. Methanol (99.8%) at −20° C. for 20 min or 4% paraformaldehyde at room temperature for 12 min was used for fixation of the cells followed by repeated washes with PBS. For immunostaining, the cells were first stained using the mouse anti-human amyloid-β mAb clone 6E10 (1:100; SIG-39320; Covance), rat anti-CD68 mAb clone FA-11 (1:100; ab53444; Abcam), rat anti-CD36 mAb clone MF3 (1:200; ab80080; Abcam), rat anti-CD204 scavenger receptor type I/II (SCARA1) mAb (1:100; MCA1322; AbD Serotec), rabbit anti-CD163 pAb (1:100; orb13303; Biorbyt), and goat anti-MMP-9 pAb (1:100; AF909; R&D systems). Secondary polyclonal antibodies included donkey anti-mouse, anti-rat, anti-rabbit, and anti-goat conjugated with Cy2, Cy3 or Cy5 (1:200; Jackson ImmunoResearch Laboratories). The cells were mounted using ProLong® Gold with DAPI (Molecular Probes, Life Technologies). Several fields (minimum n=5 randomly selected per group) were obtained from each well using a Carl Zeiss Axio Imager Z1 ApoTome-equipped microscope (an average of 120 cells in each field). Images were obtained using the same exposure time in each occasion. The fluorescent signal and its total area were determined and quantified by the conversion of individual images to greyscale and standardizing to baseline using histogram-based thresholds with NIH ImageJ software. The ‘mean area per cell’ was a result of a numerical average of the individual cell's immunoreactive area per field. The ‘area/cell’ measures the total fluorescent signal (area) divided by the total number of cells (DAPI count) of the same field (image). For all experiments, the investigators were blinded to the treatment condition.
# To investigate the impact of GA on OPN expression in macrophages, a series of in vitro studies using primary MΦ^BM was performed. BM was isolated from young WT donor mice, differentiated into mature macrophages, pretreated overnight with GA ([…]; GA-MΦ^BM) and exposed to pre-formed Aβ1-42 fibrils. […] Since MΦ^BM constitutively express and secrete OPN into the extracellular matrix, OPN production by inhibiting secretion with Brefeldin A (BFA) pretreatment was assessed (FIG. 14C). Indeed, newly generated OPN was trapped by BFA, increasing its intracellular accumulation. […] GA further elevated OPN production in BFA-pretreated MΦ^BM (FIG. 14C). […]
substance,measurement,setting,value
glatiramer acetate [GA],increase of MMP-9 expression in macrophages,MMP-9,2.7 fold
same,increase in OPN in GA-treated MΦ,OPN; FIG. 5D,2 fold
same,increase of OPN expression in MΦ^BM,"OPN; GA pretreated, 100 nM fibrillar Aβ1-42 for 30 min, qICC and ELISA",2.3-2.7 fold
same,increased OPN levels in cell lysates (ELISA),OPN; with BFA (FIG. 14E),1.4 fold
same,increase in OPN production/expression (qICC),"OPN; with BFA, GA overnight 30 µg/ml",1.6 fold
same,increased OPN levels in cell lysates (ELISA),OPN; without BFA (FIG. 14E),2.3 fold
same,increase in OPN production/expression (qICC),"OPN; without BFA, GA overnight",2.5 fold
